In ChEMBL document CHEMBL1201862, “PubChem BioAssay data set” (2004):
The source made the active and inactive calls.

What was measured:
[1] = target: T1, Apoptotic protease-activating factor 1 (Homo sapiens, UniProt O14727); test: activation of Apaf-1 mediated apoptosis – fluorescent, uHTS hits, dose response (AID 588554); type: functional
T1 sequence (O14727 whole entry): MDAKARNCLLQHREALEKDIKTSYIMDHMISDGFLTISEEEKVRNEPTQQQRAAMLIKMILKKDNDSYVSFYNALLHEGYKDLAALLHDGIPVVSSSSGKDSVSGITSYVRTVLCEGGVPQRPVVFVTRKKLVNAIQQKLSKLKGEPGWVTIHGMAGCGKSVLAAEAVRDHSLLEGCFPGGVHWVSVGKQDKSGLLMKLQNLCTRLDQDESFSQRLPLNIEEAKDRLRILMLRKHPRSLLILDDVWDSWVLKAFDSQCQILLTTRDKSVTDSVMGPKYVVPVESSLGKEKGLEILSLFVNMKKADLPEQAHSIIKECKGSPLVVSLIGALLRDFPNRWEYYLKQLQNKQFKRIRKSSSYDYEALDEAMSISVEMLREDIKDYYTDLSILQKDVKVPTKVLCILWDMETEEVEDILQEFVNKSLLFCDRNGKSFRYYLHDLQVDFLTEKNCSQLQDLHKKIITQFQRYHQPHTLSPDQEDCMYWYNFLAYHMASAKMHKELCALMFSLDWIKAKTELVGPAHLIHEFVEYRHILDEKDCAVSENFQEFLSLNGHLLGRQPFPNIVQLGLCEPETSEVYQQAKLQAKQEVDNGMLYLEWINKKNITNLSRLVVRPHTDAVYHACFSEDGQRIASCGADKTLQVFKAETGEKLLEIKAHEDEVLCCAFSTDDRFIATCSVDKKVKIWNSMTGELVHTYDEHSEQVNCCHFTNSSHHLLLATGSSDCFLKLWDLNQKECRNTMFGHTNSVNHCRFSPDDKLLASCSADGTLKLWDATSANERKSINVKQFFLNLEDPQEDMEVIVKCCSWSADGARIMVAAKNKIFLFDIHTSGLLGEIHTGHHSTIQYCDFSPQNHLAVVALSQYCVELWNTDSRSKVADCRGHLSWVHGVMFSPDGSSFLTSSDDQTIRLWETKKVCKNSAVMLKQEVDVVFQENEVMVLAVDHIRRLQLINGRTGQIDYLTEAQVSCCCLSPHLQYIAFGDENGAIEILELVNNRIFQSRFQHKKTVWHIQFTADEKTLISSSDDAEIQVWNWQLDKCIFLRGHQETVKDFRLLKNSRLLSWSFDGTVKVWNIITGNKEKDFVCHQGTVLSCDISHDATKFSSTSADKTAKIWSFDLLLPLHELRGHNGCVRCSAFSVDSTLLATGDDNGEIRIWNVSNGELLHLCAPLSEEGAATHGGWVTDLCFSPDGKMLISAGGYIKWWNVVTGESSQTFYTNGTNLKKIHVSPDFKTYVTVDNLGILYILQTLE

[2] = target: T2, Tyrosine-protein phosphatase non-receptor type 5 (Homo sapiens, UniProt P54829); test: PTPN5 enzyme inhibition – biochemical, fluorescence intensity, uHTS hits, confirmation (AID 602372); type: functional; settings: read-out: IC50_Mean
T2 sequence (P54829 whole entry): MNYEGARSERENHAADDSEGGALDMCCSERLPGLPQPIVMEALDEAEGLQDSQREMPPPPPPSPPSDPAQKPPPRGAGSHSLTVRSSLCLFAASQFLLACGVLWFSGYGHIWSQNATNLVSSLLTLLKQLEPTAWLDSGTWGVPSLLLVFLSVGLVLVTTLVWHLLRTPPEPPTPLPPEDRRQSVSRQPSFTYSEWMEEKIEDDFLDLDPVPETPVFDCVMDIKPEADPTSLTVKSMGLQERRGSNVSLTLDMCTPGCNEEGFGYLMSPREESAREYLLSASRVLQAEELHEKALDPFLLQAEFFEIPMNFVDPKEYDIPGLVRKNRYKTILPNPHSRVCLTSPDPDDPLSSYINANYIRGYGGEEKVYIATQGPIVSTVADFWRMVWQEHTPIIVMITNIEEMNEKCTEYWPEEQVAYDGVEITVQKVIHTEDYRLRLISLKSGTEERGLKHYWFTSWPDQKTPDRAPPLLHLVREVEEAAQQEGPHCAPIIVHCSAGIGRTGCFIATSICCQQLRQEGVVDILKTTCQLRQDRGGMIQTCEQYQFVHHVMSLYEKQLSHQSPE

[3] = target: T3, Tyrosine-protein phosphatase non-receptor type 22 (Homo sapiens, UniProt Q9Y2R2); test: LYP1 Fluorescent Assay using OMFP substrate for In Vitro dose response studies. [Related pubchem assays (depositor defined):AID1779, AID1784, AID435024]
T3 sequence (Q9Y2R2 whole entry): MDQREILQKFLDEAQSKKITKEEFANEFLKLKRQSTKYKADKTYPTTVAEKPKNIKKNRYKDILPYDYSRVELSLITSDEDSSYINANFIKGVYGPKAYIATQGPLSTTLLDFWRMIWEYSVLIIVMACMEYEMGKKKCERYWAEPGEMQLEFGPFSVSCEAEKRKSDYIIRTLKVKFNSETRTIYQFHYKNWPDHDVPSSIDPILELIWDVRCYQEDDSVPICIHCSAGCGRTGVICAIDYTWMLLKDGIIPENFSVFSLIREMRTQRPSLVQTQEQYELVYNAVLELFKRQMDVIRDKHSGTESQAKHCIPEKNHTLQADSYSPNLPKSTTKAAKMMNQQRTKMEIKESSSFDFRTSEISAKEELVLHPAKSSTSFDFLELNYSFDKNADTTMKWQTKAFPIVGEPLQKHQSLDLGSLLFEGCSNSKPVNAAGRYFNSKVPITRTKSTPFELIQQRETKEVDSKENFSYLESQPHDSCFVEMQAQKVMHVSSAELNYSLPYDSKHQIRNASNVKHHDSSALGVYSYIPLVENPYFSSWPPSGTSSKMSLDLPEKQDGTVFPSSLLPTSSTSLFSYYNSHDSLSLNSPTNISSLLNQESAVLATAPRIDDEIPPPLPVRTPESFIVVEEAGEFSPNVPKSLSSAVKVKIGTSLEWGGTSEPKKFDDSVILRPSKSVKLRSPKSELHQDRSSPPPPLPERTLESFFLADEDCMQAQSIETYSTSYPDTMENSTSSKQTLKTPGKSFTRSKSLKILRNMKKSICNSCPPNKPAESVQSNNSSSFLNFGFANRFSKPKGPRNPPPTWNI

| Compound | EC50 [1] | IC50 [2] | IC50 [3] |
| --- | --- | --- | --- |
| CSc1ccc(C=NNc2ccc(S(=O)(=O)Nc3ccccc3C(=O)O)cc2[N+](=O)[O-])cc1 | 8.23 µM (active) | 4.12 µM (active) |  |
| O=C(O)COc1ccc(/C=N/NC(=O)c2ccc(-c3csc(Nc4ccc(Cl)cc4)n3)cc2)cc1 |  |  | > 99 µM (inactive) |
